Test results from PubChem BioAssay AID179 (DTP/NCI, 2004).
Active and inactive are the calls of the source.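 How the source made its calls: active means compounds giving half or more protection of infected cells from virus-caused growth loss, again on retest; inactive means the rest.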

Tested on: CEM cells HIV-1 protection, formazan growth assay
Experiment: NCI AIDS Antiviral Assay
Details: for IC50: measured here: growth of uninfected CEM cells
How it was run: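 Human CEM cells, uninfected and HIV-1-infected, exposed to five drug concentrations; growth measured by soluble formazan assay and scored as percent protection from infection, with protecting compounds retested.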

Structure (SMILES)	EC50 [µM]	IC50 [µM]	outcome
O=[N+]([O-])c1c(O)c2nonc2c2nn(-c3ccccc3)nc12	> 200	120	–
Cc1cc(Cl)ccc1NC(=O)/C(CC(=O)CC(c1ccccc1)c1c(O)c2ccccc2oc1=O)=N\O (centres undefined)	> 132	95.5	–
CN(C)c1ccc(C2ON=C(c3ccccc3)N2C23CC4CC(CC(C4)C2)C3)cc1 (centres undefined)	> 200	24	–
c1ccc(C2OC23CCCCC3)cc1 (centres undefined)	> 200	> 200	–
O=C(O)c1ccccc1C(=O)NC(Cc1ccccc1)(C(=O)O)C(=O)O	> 200	> 200	–
COc1ccc(/C(Cl)=C/c2ccc(Cl)c(Cl)c2)cc1	> 200	> 200	–
CC1=CC(/C=C(\C)CCCc2ccoc2)C2(OC(=O)C(C)=C2O)[C@H]2C1CC[C@@H]2C (some centres undefined)	–	–	inactive
NC[C@H]1Nc2ccccc2[C@@H](O)C1O (some centres undefined)	47.9	1290	–
Cc1ccc(NC(=S)N/C=C(\c2ccccc2)S(=O)Cc2ccccc2)c(C)c1 (centres undefined)	> 200	93.3	–
CC1SC2=NC3=C(c4ccccc4C3=O)C(c3ccc(F)cc3)N2C1=O (centres undefined)	> 37.2	> 37.2	–
Oc1ccc(N=C2CCC(=C(c3ccccc3)c3ccc(Nc4ccc(O)cc4)cc3)CC2)cc1	> 200	20.9	–
CC(C)NCC(O)COC(=O)c1cccs1 (centres undefined)	–	–	inactive
O=C(NC1CN2CCC1CC2)C(c1ccc(F)cc1)c1ccc(F)cc1 (centres undefined)	> 200	5.37	–
Cc1oncc1NC1=CC(=O)C(=O)c2ccccc21	> 200	8.51	–
Cc1ccc(S(=O)(=O)n2ccc(-c3ccc4ccn(S(=O)(=O)c5ccc(C)cc5)c4c3)c2)cc1	> 200	87.1	–
CSc1nc(SC)c2ncn(C3CC(Oc4ccc(C)cc4)C(COc4ccc(C)cc4)O3)c2n1 (centres undefined)	> 100	66.1	–
CC1=C/C(=N\NC(N)=S)C(C(O)(C(F)(F)F)C(F)(F)F)C(C)(C)C1 (centres undefined)	> 200	89.1	–
Cc1ccc(C(=O)O)c(/C=C2\Cc3cc(C)cc(C)c3C2=O)c1	–	–	inactive
COc1csc([C@H]2CCC3[C@@H]4CC=C5C[C@@H](O)CC[C@]5(C)C4CC[C@@]32C)n1 (some centres undefined)	> 17.4	> 17.4	–
O=[N+]([O-])c1cccc2nc3ccccc3c(NCCc3cccc[n+]3[O-])c12	> 200	0.0631	–
Cc1cc(-c2ccccc2)oc(=O)c1NC(=O)c1ccccc1	> 200	97.7	–

Structure (SMILES)	EC50 [µM]	IC50 [µM]	outcome
c1csc(-c2csc(-c3cccs3)c2)c1	> 200	40.7	–
O=C(Nn1c(-c2ccccc2)nc2ccccc2c1=O)c1ccc(O)cc1	> 200	> 200	–
NC(Cc1ccc(S(=O)(=O)O)cc1)C(=O)NC(CCCCNC(=O)NCCCCC(NC(=O)C(N)Cc1ccc(S(=O)(=O)O)cc1)C(=O)NC(Cc1ccc(S(=O)(=O)O)cc1)C(=O)O)C(=O)NC(Cc1ccc(S(=O)(=O)O)cc1)C(=O)O (centres undefined)	> 100	> 100	–
CC1C[P+](c2ccccc2)(c2ccccc2)Cc2ccccc21 (centres undefined)	> 708	2.57	–
CC(=O)c1c(O)n(-c2ccc(C)cc2)c(=O)c2c(N)n[nH]c12	100	117	–
Cn1c2ccc([N+](=O)[O-])cc2c(=O)c2c(O)cc(O)cc21	> 200	19.1	–
Cc1ccn2c(N=O)c(-c3ccccc3)nc2c1	135	> 200	–
COC(=O)C(Cc1nc2ccccc2[nH]c1=O)C(NO)C(=O)Nc1c(Cl)cc([N+](=O)[O-])cc1Cl (centres undefined)	> 51.3	> 51.3	–
CC1=NN(C(=O)c2ccc(Cl)cc2)C(=O)/C1=C/c1ccccc1O	> 20.9	> 20.9	–
C/C(O)=C(/C=NC(=S)c1ccncc1)C(=O)Nc1ccccc1	> 200	> 200	–
CCOc1ccccc1N=Nc1c(-c2ccccc2)nn(C(=O)CC(=O)Nc2cccc(Cl)c2)c1-c1ccccc1	> 45.7	> 45.7	–
CC(C)c1cccc(C(C)C)c1NC(=O)C(=O)C(C(=O)c1ccccc1-c1ccccc1)C1OC(=O)c2ccccc21 (centres undefined)	> 64.6	25.1	–
COC(=O)c1cc(C(=CCC(=O)N[C@@H]2CC[C@@]3(C)[C@@H](CC[C@@H]4[C@@H]3CC[C@]3(C)[C@@H]([C@H](C)CCCC(C)C)CC[C@@H]43)C2)c2cc(Cl)c(OC)c(C(=O)OC)c2)cc(Cl)c1OC	> 200	> 200	–
CCN(CC)CC(=O)Nc1ccc(C)c(Cl)c1	> 200	112	–
C[Si](C)(C)C#C/C(CO)=C(/C#C[Si](C)(C)C)CO	> 33.9	> 33.9	–
CCOC(=O)C(NC(=O)C(CCCCNP(=O)(OCC)OCC)NC(=O)C(C)NC(C)=O)C(C)C (centres undefined)	> 200	> 200	–
CC1=NC=C(O)c2ccccc2O1	> 40.7	> 40.7	–
OCC(O)CC[CH2][Sn]([c]1ccccc1)([c]1ccccc1)[c]1ccccc1 (centres undefined)	–	–	inactive
CC1=CC(=O)C(C)(C2=NC(C)(C)CO2)c2ccccc21 (centres undefined)	51.3	575	–
CCCCN=C(NC#N)N(Cc1ccccc1)Cc1ccccc1	> 100	22.9	–
COc1ccccc1N(CN1C(=O)CCC1C(=O)O)C(C)=O (centres undefined)	–	–	inactive

Structure (SMILES)	EC50 [µM]	IC50 [µM]	outcome
O=[As](O)(O)c1ccc(Cl)cc1Cl	> 200	95.5	–
O=C1c2ccccc2C2NCCCN12 (centres undefined)	–	–	inactive
COc1ccc2c(c1)CCN1CCCc3ccccc3C21 (centres undefined)	> 200	26.9	–
COc1cc2c(cc1OC)C(Cl)C(c1ccc(Cl)cc1)=C2Cl (centres undefined)	–	–	inactive
Cn1c(=O)n2c(=O)n(C)c(=O)n2c1=O	> 200	> 200	–
COC1=CC(O)(CC(N)=O)c2ccccc2C1=O (centres undefined)	> 1000	> 1000	–
CC(=O)OCc1cc(=O)n(C)c2c3c4c(cc12)c(C)cc(=O)n4CO3	> 7.94	1.26	–
CC(C)C(C(=O)O)C(=O)O	> 200	> 200	–
CNC(=O)C(C(=O)NC)n1cnc(C(=O)OC)c1O	> 200	> 200	–
CN(C)c1ccc2nc3c(cc(Nc4cccc5cccc(Nc6cc7ccccc7c7nc8ccc(N(C)C)cc8[o+]c67)c45)c4ccccc43)[o+]c2c1	> 100	15.1	–
CC(NNC(=O)c1ccncc1)c1cccc(C(F)(F)F)c1 (centres undefined)	> 200	195	–
O=C(CC(=O)Nc1cccc(Cl)c1)NNCC(=O)Nc1nnc(-c2ccccc2)s1	> 22.4	> 22.4	–
Cc1cn([C@@H]2O[C@H](CO[Si](C)(C)C(C)(C)C)[C@]3(O[C@H]3C(=O)NN)[C@H]2O[Si](C)(C)C(C)(C)C)c(=O)[nH]c1=O	> 200	3.63	–
Cc1ccc(C(=O)OC(C)C)cc1N=NN(C)C	> 55	> 55	–
CC1C(C#N)(C#N)C(C#N)=C(N)C1(Cl)[N+](=O)[O-] (centres undefined)	> 200	3.72	–
CCc1cc(=O)oc2c3c(cc(OC(C)C)c12)O[C@H](C)[C@@H](C)C3=O	> 200	15.5	–
NC1=C(c2nc(-c3ccccc3)cs2)C(c2ccc(Br)cc2)c2c(c3ccccc3oc2=O)O1 (centres undefined)	> 200	> 200	–
CCCCCCOC(=O)c1[nH]c(=O)n(CCCCCC)c(=O)c1N	> 200	151	–
O=C(CC1NCCS1)OCc1ccc(Br)cc1 (centres undefined)	19.1	81.3	–
CC(C)CC(=O)[O-].N.N.N.N.N.[Co+3].[O-][Cl+3]([O-])([O-])[O-]	–	–	inactive
CC1=C(C(=O)Nc2cc(F)c(F)cc2F)C(c2ccc3c(c2)OCO3)C(C(=O)Nc2cc(F)c(F)cc2F)=C(C)N1	> 61.7	46.8	–

Structure (SMILES)	EC50 [µM]	IC50 [µM]	outcome
CCS(=O)(=O)CCn1c(=O)c2c(ncn2C)n(C)c1=O	> 200	> 200	–
COc1ccc(Cc2c3cc(O)c(=O)cc-3ccn2C)cc1OC	> 15.8	8.13	–
O=C1CNc2cc(N3CCN(c4cccc(C(F)(F)F)c4)CC3)ccc2N1	> 200	75.9	–
C/C=C/C=Nc1c(C#N)c2n(c1C(=O)Nc1ccccc1)CCCC2	> 50.1	> 50.1	–
O=C(c1ccccc1)N1C/C(=N\Nc2ccc(Cl)cc2)c2c([nH]c3ccccc23)C1	> 9.12	> 9.12	–
Cc1cccc(Nc2nc(NNC(=O)Cc3ccccc3)nc(NNC(=O)c3ccncc3)n2)c1	> 100	> 100	–
COC(=O)Cn1c(=O)oc2nc(-c3ccccc3)cc(C(F)(F)F)c21	> 200	129	–
O=C(O)Cn1c[n+](NC(=O)Cc2ccccc2)cn1	> 200	> 200	–
c1ccc(-c2cc(-c3ccncc3)cc(-c3ccncc3)n2)cc1	> 200	> 200	–
O=C(Nc1ccccc1)OCC1OCOC(COC(=O)Nc2ccccc2)C1OC(=O)Nc1ccccc1 (centres undefined)	> 200	4.47	–
CC(C)(C)c1cc(Nc2ccc([N+](=O)[O-])cc2[N+](=O)[O-])cc(C(C)(C)C)c1O	> 13.5	> 13.5	–
O=C(CNc1ccc(Cl)cc1Cl)NC1C=Cc2ccc(S(=O)(=O)Nc3ccc(Cl)cc3Cl)cc2C1=O (centres undefined)	> 200	> 200	–
O=C1N[C@@H](Cc2ccccc2)C(=O)N2CSC[C@H]12	> 631	> 631	–
CCc1c(O)c2c(c(O)c1C(C)=O)C(=O)c1c(cc(O)c(C(=O)O)c1C(=O)O)C2=O	> 33.1	> 33.1	–
CCCCCC=C(c1cc(Cl)c(OC)c(C(=O)OCC)c1)c1cc(Cl)c(OC)c(C(=O)OCC)c1	> 10	> 10	–
Cc1cc(C)nc(NC(P(=O)(O)O)P(=O)(O)O)n1	> 200	> 200	–
CC(C)CC(C(N)=O)C(=O)NC(Cc1ccccc1)NC(=O)CNC(=O)C(C)NC(=O)C(N)Cc1ccc(O)cc1 (centres undefined)	> 200	> 200	–
CN(C)CC1CCCC/C1=N/O (centres undefined)	–	–	inactive
CN(N)/N=N/c1nc[nH]c1C(N)=O	> 2	1.45	–
Oc1[nH]c(=S)[nH]c1/C=C1/C(c2ccccc2)=Nc2ccccc21	> 200	9.33	–
COc1cc(C(=O)CC(O)(C(F)(F)F)C(F)(F)F)cc(OC)c1OC	> 200	> 200	–
